In patent publication US9988400B2 (Genentech, Inc., priority 2013, dated 2018) one finds EC50 and Max % data, which are given here for 13 compounds.

In general, EC50 refers to the concentration giving half of the maximal effect.

This assay addresses T1, HEK cells stably transfected with tetracycline inducible hNR1 and hNR2A (Homo sapiens, UniProt Q05586+Q12879).
T1 construct: expressed in transfected cells; host or cells: HEK cells, stably transfected, tetracycline/doxycycline inducible
The experiment in a line: Assay 1: Cell-Based Assay, cytosolic calcium response to positive allosteric modulators (with 30 μM glycine and 300 nM L-glutamate, EC30). As to conditions: Table 2; for EC50: cytosolic calcium response, with 30 μM glycine and 300 nM L-glutamate (EC30), — = no plateau was reached; for Max %: responses scaled relative to 100 μM L-glutamate maximal response (100%) and 0 μM L-glutamate (0%). A digest of the protocol:
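Cells induced 24 h with 7.5 μg mL^−1 doxycycline plus 500 μM (+)-ketamine, loaded 60 min at 37 °C with calcium dye in Mg-free HBSS (1.8 mM Ca, probenecid, 10 μM (+)-ketamine, pH 7.15). Peak RFU over 5 min after compound addition, scaled to 100 μM L-glutamate (100%) and 0 μM (0%); four-parameter Hill fit for EC50, max % if no plateau.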

T1 sequence (Q12879 23-1464, other chains not shown): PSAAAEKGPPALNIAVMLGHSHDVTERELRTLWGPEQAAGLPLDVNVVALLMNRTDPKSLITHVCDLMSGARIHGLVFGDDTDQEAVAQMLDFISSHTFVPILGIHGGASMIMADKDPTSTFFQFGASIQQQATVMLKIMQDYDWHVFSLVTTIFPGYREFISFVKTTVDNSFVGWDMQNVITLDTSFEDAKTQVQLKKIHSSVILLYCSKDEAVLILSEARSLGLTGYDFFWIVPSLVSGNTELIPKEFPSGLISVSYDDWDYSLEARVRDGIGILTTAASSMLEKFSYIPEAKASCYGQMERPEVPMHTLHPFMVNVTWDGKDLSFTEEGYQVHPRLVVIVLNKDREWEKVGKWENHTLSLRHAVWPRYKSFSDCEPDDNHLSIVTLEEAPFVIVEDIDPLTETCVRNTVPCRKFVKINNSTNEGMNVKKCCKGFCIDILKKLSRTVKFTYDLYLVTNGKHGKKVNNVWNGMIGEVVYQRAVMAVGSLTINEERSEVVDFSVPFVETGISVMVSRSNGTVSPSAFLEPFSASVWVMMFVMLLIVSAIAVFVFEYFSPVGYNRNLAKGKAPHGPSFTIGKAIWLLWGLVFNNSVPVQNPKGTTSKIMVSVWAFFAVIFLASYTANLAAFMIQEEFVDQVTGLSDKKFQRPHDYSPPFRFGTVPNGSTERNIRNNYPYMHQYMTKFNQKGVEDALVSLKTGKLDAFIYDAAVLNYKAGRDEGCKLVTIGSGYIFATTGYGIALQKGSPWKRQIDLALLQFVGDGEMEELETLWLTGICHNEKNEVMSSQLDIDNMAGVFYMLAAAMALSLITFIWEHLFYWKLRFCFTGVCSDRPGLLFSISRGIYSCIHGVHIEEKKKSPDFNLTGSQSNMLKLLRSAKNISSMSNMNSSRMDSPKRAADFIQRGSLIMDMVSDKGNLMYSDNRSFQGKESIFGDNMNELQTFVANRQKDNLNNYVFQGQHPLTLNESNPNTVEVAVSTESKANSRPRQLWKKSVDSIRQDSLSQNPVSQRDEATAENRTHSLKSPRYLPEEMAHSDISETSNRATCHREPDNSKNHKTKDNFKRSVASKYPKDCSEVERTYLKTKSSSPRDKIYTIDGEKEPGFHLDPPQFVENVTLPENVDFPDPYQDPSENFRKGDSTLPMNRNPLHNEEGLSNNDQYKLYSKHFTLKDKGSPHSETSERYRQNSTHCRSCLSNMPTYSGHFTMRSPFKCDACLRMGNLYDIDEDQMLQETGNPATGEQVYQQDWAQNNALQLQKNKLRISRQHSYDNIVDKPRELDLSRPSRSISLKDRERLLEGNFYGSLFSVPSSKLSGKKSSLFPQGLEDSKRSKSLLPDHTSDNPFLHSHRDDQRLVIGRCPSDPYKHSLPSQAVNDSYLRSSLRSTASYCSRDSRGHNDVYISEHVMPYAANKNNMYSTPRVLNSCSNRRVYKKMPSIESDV

Regarding `CNC(=O)Cc1c(C)sc2nc(COc3ccc(F)cc3)cc(=O)n12` [Example 2.6, 2-(7-((4-fluorophenoxy)methyl)-2-methyl-5-oxo-5H-thiazolo[3,2-a]pyrimidin-3-yl)-N-methylacetamide], the EC50 worked out at 19.6 µM and the Max % is 59.9%. The matching figures for `Cc1sc2nc(COc3ccc(F)cc3)cc(=O)n2c1C(=O)C1CC1` [Example 2.7, 3-Cyclopropanecarbonyl-7-(4-fluorophenoxymethyl)-2-methyl-5H-[1,3]thiazolo[3,2-a]pyrimidin-5-one]: 26 µM and 61.3%.

As for `C/C(=N\O)c1c(C)sc2nc(COc3ccc(F)cc3)cc(=O)n12` [Example 2.8, 7-(4-Fluorophenoxymethyl)-3-[1-(hydroxyimino)ethyl]-2-methyl-5H-[1,3]thiazolo[3,2-a]pyrimidin-5-one], the Max % came to 137%.

As for `Cc1sc2nc(COc3ccc(F)cc3)cc(=O)n2c1C(=O)C1COC1` [Example 2.9, 7-((4-fluorophenoxy)methyl)-2-methyl-3-(oxetane-3-carbonyl)-5H-thiazolo[3,2-a]pyrimidin-5-one], the Max % amounted to 56.4%.

Regarding `Cc1sc2nc(COc3ccc(F)cc3)cc(=O)n2c1C(O)C(F)(F)F` (stereo not drawn) [Example 2.10, 7-((4-fluorophenoxy)methyl)-2-methyl-3-(2,2,2-trifluoro-1-hydroxyethyl)-5H-thiazolo[3,2-a]pyrimidin-5-one], the Max % is on record as 119%. For the compound `Cc1sc2nc(COc3ccc(F)cc3)cc(=O)n2c1C(=O)C(F)(F)F` [Example 2.11, 7-(4-Fluorophenoxymethyl)-2-methyl-3-(trifluoroacetyl)-5H-[1,3]thiazolo[3,2-a]pyrimidin-5-one], the Max % was found to be 87.4%.

Consider `CCNC(=O)c1c(C2CC2)sc2nc(COc3ccc(F)cc3)cc(=O)n12` [Example 3.1, 2-cyclopropyl-N-ethyl-7-((4-fluorophenoxy)methyl)-5-oxo-5H-thiazolo[3,2-a]pyrimidine-3-carboxamide], for which the EC50 stood at 41 µM and the Max % stood at 56.2%. The matching figures for `CNC(=O)c1c(C(F)(F)F)sc2nc(COc3ccc(F)cc3)cc(=O)n12` [Example 3.2, 7-(4-Fluorophenoxymethyl)-N-methyl-5-oxo-2-(trifluoromethyl)-5H-[1,3]thiazolo[3,2-a]pyrimidine-3-carboxamide]: 10.1 µM and 42.7%.

Turning to `CNC(=O)c1c(C2CC2)sc2nc(COc3ccc(F)cc3)cc(=O)n12` [Example 3.3, 2-Cyclopropyl-7-(4-fluorophenoxymethyl)-N-methyl-5-oxo-5H-[1,3]thiazolo[3,2-a]pyrimidine-3-carboxamide], the Max % is 61.8%. `CCNC(=O)c1c(C(F)(F)F)sc2nc(COc3ccc(F)cc3)cc(=O)n12` [Example 3.4, N-Ethyl-7-(4-fluorophenoxymethyl)-5-oxo-2-(trifluoromethyl)-5H-[1,3]thiazolo[3,2-a]pyrimidine-3-carboxamide]: the Max % is reported as 44.6%. `CNC(=O)c1csc2nc(COc3ccc(F)cc3)cc(=O)n12` [Example 3.5, 7-((4-fluorophenoxy)methyl)-N-methyl-5-oxo-5H-thiazolo[3,2-a]pyrimidine-3-carboxamide]: the Max % amounted to 65.6%. With `CCNC(=O)c1c(C)sc2nc(COc3ccc(F)cn3)cc(=O)n12` [Example 3.6, N-ethyl-7-[[(5-fluoropyridin-2-yl)oxy]methyl]-2-methyl-5-oxo-5H-[1,3]thiazolo[3,2-a]pyrimidine-3-carboxamide], the Max % amounted to 68%. As to `Cc1sc2nc(COc3ccc(F)cc3)cc(=O)n2c1-c1cncnc1` [Example 4.5, 7-((4-fluorophenoxy)methyl)-2-methyl-3-(pyrimidin-5-yl)-5H-thiazolo[3,2-a]pyrimidin-5-one], the EC50 amounted to 5.7 µM and the Max % is 42.2%.
